Test results: patent US7338778B2, “Luminescent method for determining cell oxygen consumption” (Becton, Dickinson and Company, priority 1991, dated 2008)
Values after ≈ are worked out from the molar mass of the structure shown.

Columns and labels:
Assay type in all cases: cell-based
E. coli (ATCC #25922) [1] = assay: Effect of antibiotics on E. coli, Ru(DPP)3Cl2 indicator tray (Example 8); settings: for Relative Fluorescence at 4 hrs.: 1×10^7 CFU/ml, 37° C.
Description: (§1) A 0.5 McFarland suspension of E. coli (ATCC #25922) in Broth A (see Example 1) was prepared using an A-Just nephelometer. […] The trays were incubated at 37° C. for 4 hours and their fluorescence measured in a Fluoroskan II fluorometer.
The fluorescent compound tris 4,7-diphenyl-1,10-phenanthroline ruthenium (II) chloride (Ru(DPP)3Cl2) was synthesized using the procedure of Watts and Crosby (J. Am.Chem. Soc. 93, 3184(1971)). A total of 3.6 mg of the compound was dissolved in 2.0 ml dimethyl sulfoxide (D-5879, Sigma Chemical, St. Louis, Mo.) and the resultant solution was then added slowly, with stirring, to 1300 ml silicone rubber forming solution (Water Based Emulsion #3-5024, Dow Corning, Midland, Mich.). A 35 microliter aliquot of the mixture was subsequently dispensed into each well of a 96 well, flat bottom, white microtiter tray (#011-010-7901, Dynatech, Chantilly, Va.), and the system was subsequently cured overnight in a low humidity (less than 25% RH), 60° C. incubator. After curing, the trays were washed by either soaking or by filling and emptying each well several times with each of the following reagents; a) absolute ethanol, b) 0.1 M phosphate buffer pH 7.2, c) hot distilled water (about 45° C.) and d) ambient temperature distilled water.

E. coli (ATCC #25922) [2] = assay: Effect of antibiotics on oxygen consumption of E. coli, Ru(BiPy)3Cl2 indicator tray (Example 9); settings: for Relative Fluorescence at 4 hrs.: 1×10^7 CFU/ml, 37° C.
Description: A 96 well Microtiter tray was produced essentially as in Example 1, except that tris-(2,2′ bipyridyl)-ruthenium (II) chloride hexahydrate (Aldrich Chemical Company, Milwaukee, Wis.) [Ru(BiPy)3Cl2] was substituted for Ru(DPP)3Cl2 in the silicone mixture. A second tray containing 9,10-diphenyl anthracene (DPA) was also prepared. All wells were charged with 150 ul of 1×10^7 CFU/ml E. coli (ATCC #25922) in broth. Table 3 lists the results at 0, 1, 2, 3, and 4 hours after addition of organisms.
as §1

E. coli (ATCC #11775) = assay: Effect of open and closed systems on oxygen measurements with cefuroxime (Example 11); settings: 4 and 8 ug/ml, 5 hours, 37° C.
Description: A 96 well indicator microtiter tray was produced substantially as in Example 1. Duplicate wells in the tray were supplemented with the antibiotic cefuroxime in the concentration range of 0.25 to 32 ug/ml. One hundred and fifty microliters of a suspension of E. coli (ATCC #11775) was added to the wells to yield about 3×10^7 CFU/ml. One of each duplicate well was overlaid with mineral oil to inhibit diffusion of oxygen into the wells, the other duplicate was left open to the air. […] This difference is due, presumably to the time lag needed for the antibiotic to affect the organism; it is believed that during this time the oxygen is brought to an artificially low level by the ongoing metabolic activity of the organisms.

E. coli (ATCC #25922) [3] = assay: Visual reading of indicator tray fluorescence without a fluorometer (Example 13); settings: E. coli #25922, 1×10^7 CFU/ml, 4 hours at 37° C., UV transilluminator
Description: (§2) The trays were incubated for 4 hours at 37° C. and subsequently placed on the stage of an ultraviolet transilluminator (#TX-365A, Spectronics Corp., Westbury, N.Y.) which served as an excitation source.

[4] = tested on: Ps. aeruginosa (BDMS Culture collection #N111); assay: as above; settings: 1×10^7 CFU/ml, 4 hours at 37° C., UV transilluminator
Description: as §2

[5] = tested on: Ps. aeruginosa (BDMS Culture collection #N111); assay: Overnight microdilution antimicrobial susceptibility test (reference MIC); settings: Pseudomonas aeruginosa
E. coli (ATCC #25922) [6] = assay: as above; settings: Escherichia coli, ATCC25922; E. coli #25922, overnight microdilution
E. coli (ATCC #25922) [7] = assay: Effect of antibiotics on oxygen consumption of E. coli, DPA indicator tray (Example 10); settings: for Relative Fluorescence at 4 hrs.: 1×10^7 CFU/ml, 37° C.
[8] = all concentrations (0.5 to 8 ug/ml), 4 hours

CO/N=C(\C(=O)N[C@@H]1C(=O)N2C(C(=O)O)=C(COC(N)=O)CS[C@H]12)c1ccco1 [Cefuroxime, cefuroxime] was tested, and the “susceptibility of E. coli by fluorescence counts” value (“susceptibility of E. coli” for short) (E. coli (ATCC #25922) [1]; [8]) was “resistant”, the “Relative Fluorescence at 4 hrs.” value (E. coli (ATCC #25922) [1]; antibiotic 0.5 ug/mL) was 7902 and the “Relative Fluorescence at 4 hrs.” value (E. coli (ATCC #25922) [1]; antibiotic 1 ug/mL) was 7983. The “Relative Fluorescence at 4 hrs.” value (E. coli (ATCC #25922) [1]; antibiotic 2 ug/mL) was 7161, the “Relative Fluorescence at 4 hrs.” value (E. coli (ATCC #25922) [1]; antibiotic 4 ug/mL) was 7598 and the “Relative Fluorescence at 4 hrs.” value (E. coli (ATCC #25922) [1]; antibiotic 8 ug/mL) was 6469. The “susceptibility of E. coli” value (E. coli (ATCC #25922) [2]; [8]) was “resistant”, the “Relative Fluorescence at 4 hrs.” value (E. coli (ATCC #25922) [2]; antibiotic 0.5 ug/mL) was 1155 and the “Relative Fluorescence at 4 hrs.” value (E. coli (ATCC #25922) [2]; antibiotic 1 ug/mL) was 1539. The “Relative Fluorescence at 4 hrs.” value (E. coli (ATCC #25922) [2]; antibiotic 2 ug/mL) was 1183, the “Relative Fluorescence at 4 hrs.” value (E. coli (ATCC #25922) [2]; antibiotic 4 ug/mL) was 1170 and the “Relative Fluorescence at 4 hrs.” value (E. coli (ATCC #25922) [2]; antibiotic 8 ug/mL) was 1194. The “effect on oxygen consumption by fluorescence as percent of growth control” value (E. coli (ATCC #11775); closed system overlaid with mineral oil) was “did not show an effect on oxygen consumption”, the “susceptibility of organism by fluorescence as percent of growth control” value (E. coli (ATCC #11775); wells with no mineral oil (open to air)) was “sensitive” and the “MIC Visual (lowest concentration of antibiotic to significantly lower the fluorescent emissions)” value (E. coli (ATCC #25922) [3]) was 16 µg/mL. The “MIC Visual (lowest concentration of antibiotic to significantly lower the fluorescent emissions)” value [4] was over 64 µg/mL, the MIC [5] was over 64 µg/mL and the MIC (E. coli (ATCC #25922) [6]) was 8 µg/mL (≈ 18.9 µM). The “susceptibility of E. coli” value (E. coli (ATCC #25922) [7]; [8]) was “resistant”, the “Relative Fluorescence at 4 hrs.” value (E. coli (ATCC #25922) [7]; antibiotic 0.5 ug/mL) was 183 and the “Relative Fluorescence at 4 hrs.” value (E. coli (ATCC #25922) [7]; antibiotic 1 ug/mL) was 197. For the same compound, the “Relative Fluorescence at 4 hrs.” value (E. coli (ATCC #25922) [7]; antibiotic 2 ug/mL) was 195, the “Relative Fluorescence at 4 hrs.” value (E. coli (ATCC #25922) [7]; antibiotic 4 ug/mL) was 160 and the “Relative Fluorescence at 4 hrs.” value (E. coli (ATCC #25922) [7]; antibiotic 8 ug/mL) was 161.
